Values quoted from earlier work as cited in US20220323393A1, “COMPOSITIONS AND METHODS FOR TREATING AND/OR PREVENTING CARDIOVASCULAR DISEASE” (AMARIN PHARMACEUTICALS IRELAND LIMITED, priority 2010, published 2022).

Tested on: subjects with AAMI
Conditions: 50 mg, Day 21 of repeated dosing

CN[C@@H](C)C/C=C/c1cncc(OC(C)C)c1 [Ispronicline]
Benefit to Power of Attention versus placebo: 61 ms
Power of Attention, mean (SD=61.22): -32.54 ms
